Laboratory results published in ChEMBL document CHEMBL4033732, “Identification and synthesis of novel inhibitors of mycobacterium ATP synthase” (Bioorg Med Chem Lett, 2017).
Values after ≈ are worked out from the molar mass of the structure shown.

Tests used:
[1] = tested on: Mycobacterium tuberculosis; test: Antimicrobial activity against Mycobacterium tuberculosis H37Rv assessed as reduction in microbial growth incubated for 5 days by CLSI protocol based assay; format: functional; settings: 120 h
[2] = Inhibition of ATP synathse in Mycobacterium smegmatis str. MC2 155 inverted membrane vesicles assessed as ATP formation pre-incubated for 30 mins before NADH-ADP-phosphate buffer cocktail addition and measured after 60 mins by kinase glow reagent based assay; set-up: species or system Mycolicibacterium smegmatis MC2 155
CYP1A2 = target: T1, CYP1A2 (Homo sapiens, UniProt P05177); test: Inhibition of CYP1A2 in human liver microsomes at 10 uM; format: ADME
T1 sequence (P05177 whole entry): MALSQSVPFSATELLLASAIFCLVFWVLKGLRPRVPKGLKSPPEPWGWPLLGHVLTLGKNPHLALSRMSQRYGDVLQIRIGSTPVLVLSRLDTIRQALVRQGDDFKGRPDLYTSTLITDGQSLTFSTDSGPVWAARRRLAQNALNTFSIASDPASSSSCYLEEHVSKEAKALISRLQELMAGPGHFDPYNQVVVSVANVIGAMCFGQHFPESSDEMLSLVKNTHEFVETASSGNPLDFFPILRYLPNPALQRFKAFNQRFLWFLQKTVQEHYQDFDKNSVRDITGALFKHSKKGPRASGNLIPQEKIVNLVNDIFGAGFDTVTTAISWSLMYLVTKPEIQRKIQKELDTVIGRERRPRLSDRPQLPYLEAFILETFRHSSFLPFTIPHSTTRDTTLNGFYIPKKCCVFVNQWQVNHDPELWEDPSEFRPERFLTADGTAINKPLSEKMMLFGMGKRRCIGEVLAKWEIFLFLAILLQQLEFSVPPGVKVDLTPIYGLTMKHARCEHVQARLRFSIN

CYP2C9 = CYP2C9 (Homo sapiens, UniProt P11712); test: Inhibition of CYP2C9 in human liver microsomes at 10 uM; format: ADME
HeLa = test: Cytotoxicity against human HeLa cells incubated for 48 hrs by MTT assay; format: functional
CYP2C19 = CYP2C19 (Homo sapiens, UniProt P33261); test: Inhibition of CYP2C19 in human liver microsomes at 10 uM; format: ADME
[3] = Solubility in pH 6.8 buffer; format: physicochemical
CYP2D6 = CYP2D6 (Homo sapiens, UniProt P10635); test: Inhibition of CYP2D6 in human liver microsomes at 10 uM; format: ADME
CYP3A4 = CYP3A4 (Homo sapiens, UniProt P08684); test: Inhibition of CYP3A4 in human liver microsomes at 10 uM; format: ADME
[4] = Lipophilicity, log D of the compound; format: physicochemical; settings: octanol/water

Chain of CYP2C9 (P11712 whole entry): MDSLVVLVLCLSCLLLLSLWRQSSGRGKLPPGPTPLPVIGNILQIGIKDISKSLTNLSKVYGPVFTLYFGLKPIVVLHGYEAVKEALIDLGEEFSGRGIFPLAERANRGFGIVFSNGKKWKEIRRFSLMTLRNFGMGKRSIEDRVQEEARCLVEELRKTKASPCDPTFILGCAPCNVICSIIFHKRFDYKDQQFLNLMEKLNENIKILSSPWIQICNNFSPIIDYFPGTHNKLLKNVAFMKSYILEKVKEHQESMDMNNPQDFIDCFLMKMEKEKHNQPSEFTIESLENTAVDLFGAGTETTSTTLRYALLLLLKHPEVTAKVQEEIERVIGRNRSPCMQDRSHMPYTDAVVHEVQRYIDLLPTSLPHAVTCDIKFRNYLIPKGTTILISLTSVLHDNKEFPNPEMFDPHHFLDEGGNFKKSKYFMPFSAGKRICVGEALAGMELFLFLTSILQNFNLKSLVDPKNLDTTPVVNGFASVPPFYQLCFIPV
Chain of CYP2C19 (P33261 whole entry): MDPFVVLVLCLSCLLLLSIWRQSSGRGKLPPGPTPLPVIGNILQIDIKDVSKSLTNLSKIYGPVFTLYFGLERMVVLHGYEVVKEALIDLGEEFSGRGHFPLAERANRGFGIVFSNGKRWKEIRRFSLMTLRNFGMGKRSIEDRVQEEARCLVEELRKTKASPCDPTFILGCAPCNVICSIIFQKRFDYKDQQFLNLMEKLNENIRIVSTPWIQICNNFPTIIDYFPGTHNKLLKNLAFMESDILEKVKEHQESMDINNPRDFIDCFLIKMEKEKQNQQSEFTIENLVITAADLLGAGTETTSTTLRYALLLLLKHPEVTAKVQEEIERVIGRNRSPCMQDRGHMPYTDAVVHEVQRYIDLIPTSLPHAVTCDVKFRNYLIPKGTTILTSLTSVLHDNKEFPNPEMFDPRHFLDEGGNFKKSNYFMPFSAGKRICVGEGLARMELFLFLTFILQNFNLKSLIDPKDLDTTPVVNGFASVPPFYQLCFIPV
Chain of CYP3A4 (P08684 whole entry): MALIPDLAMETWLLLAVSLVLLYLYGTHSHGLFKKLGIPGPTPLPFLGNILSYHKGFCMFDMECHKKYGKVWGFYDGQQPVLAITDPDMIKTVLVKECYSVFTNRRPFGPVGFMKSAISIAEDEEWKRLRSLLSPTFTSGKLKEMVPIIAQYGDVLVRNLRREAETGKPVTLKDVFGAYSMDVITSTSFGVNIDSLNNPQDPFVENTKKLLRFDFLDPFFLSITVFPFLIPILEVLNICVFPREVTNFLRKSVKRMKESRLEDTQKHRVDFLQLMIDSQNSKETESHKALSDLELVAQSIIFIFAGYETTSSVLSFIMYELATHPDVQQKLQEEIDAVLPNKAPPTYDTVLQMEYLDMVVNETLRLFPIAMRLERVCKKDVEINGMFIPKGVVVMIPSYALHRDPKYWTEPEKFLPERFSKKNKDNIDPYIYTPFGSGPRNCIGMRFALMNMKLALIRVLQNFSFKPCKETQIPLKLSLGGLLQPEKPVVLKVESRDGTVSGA
Chain of CYP2D6 (P10635 whole entry): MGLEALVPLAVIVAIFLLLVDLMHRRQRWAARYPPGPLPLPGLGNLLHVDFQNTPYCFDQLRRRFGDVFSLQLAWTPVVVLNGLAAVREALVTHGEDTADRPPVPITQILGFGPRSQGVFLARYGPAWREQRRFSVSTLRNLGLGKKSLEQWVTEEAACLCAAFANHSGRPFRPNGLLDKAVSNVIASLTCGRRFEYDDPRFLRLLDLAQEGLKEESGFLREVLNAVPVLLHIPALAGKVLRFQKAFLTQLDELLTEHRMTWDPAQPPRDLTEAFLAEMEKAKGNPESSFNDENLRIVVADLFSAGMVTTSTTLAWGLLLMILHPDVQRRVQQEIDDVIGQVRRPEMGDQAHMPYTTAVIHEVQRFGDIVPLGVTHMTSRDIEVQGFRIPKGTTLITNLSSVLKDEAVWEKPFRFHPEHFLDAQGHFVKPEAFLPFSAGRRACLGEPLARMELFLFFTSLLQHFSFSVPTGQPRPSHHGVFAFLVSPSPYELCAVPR

Row | SMILES | MIC [1] | IC50 [2] | inhibition at 10 µM (CYP1A2) | inhibition at 10 µM (CYP2C9) | GI50 (HeLa) | inhibition at 10 µM (CYP2C19) | solubility [3] | inhibition at 10 µM (CYP2D6) | inhibition at 10 µM (CYP3A4) | logD [4]
1 | O=C(c1cc2n(n1)CCN(Cc1ccc(Cl)c(Cl)c1)C2=O)N1CCNCC1 | > 32 µg/mL | > 10000 nM |  |  |  |  |  |  |  | 
2 | O=C(c1cc2c(=O)n(Cc3ccc(Cl)c(Cl)c3)ccn2n1)N1CCCCC1 | 4 µg/mL | 810 nM | 0% | 28% | > 100 µg/mL | 11% | < 1 µg/mL | 30% | 0% | 3.5
3 | O=C(c1cc2n(n1)CCN(Cc1ccccc1)C2=O)N1CCCCC1 | > 32 µg/mL | > 10000 nM |  |  |  |  |  |  |  | 
4 | O=C(c1cn2ccn(Cc3ccc(Cl)c(Cl)c3)c(=O)c2n1)N1CCCCC1 | 4 µg/mL | 520 nM | 3% | 0% | > 100 µg/mL | 6% | 1.2 µg/mL (≈ 2.96 µM) | 0% | 0% | 3.6
5 | CN1CCN(C(=O)c2cc3n(n2)CCN(Cc2ccc(Cl)c(Cl)c2)C3=O)CC1 | > 32 µg/mL | > 10000 nM |  |  |  |  |  |  |  | 
6 | O=C(c1cc2n(n1)CCCN(Cc1ccc(Cl)c(Cl)c1)C2=O)N1CCCCC1 | 8 µg/mL | 290 nM | 13% | 13% | > 100 µg/mL | 0% | 109 µg/mL (≈ 259 µM) | 0% | 0% | 2.1
7 | CC(c1ccc(Cl)c(Cl)c1)N1CCn2nc(C(=O)N3CCCCC3)cc2C1=O (racemic) | > 32 µg/mL | > 10000 nM |  |  |  |  |  |  |  | 
8 | CN(C)C(=O)c1cc2n(n1)CCN(Cc1ccc(Cl)c(Cl)c1)C2=O | > 32 µg/mL | > 10000 nM |  |  |  |  |  |  |  | 
9 | O=C(c1cc2n(c1)CCN(Cc1ccc(Cl)c(Cl)c1)C2=O)N1CCCCC1 | 8 µg/mL | 1550 nM |  |  | > 100 µg/mL |  |  |  |  | 
10 | CC(C)(C)c1ccc(CN2CCn3nc(C(=O)N4CCCCC4)cc3C2=O)cc1 | 8 µg/mL | 290 nM | 17% | 19% | > 100 µg/mL | 0% | 54 µg/mL (≈ 137 µM) | 0% | 0% | 4
11 | O=C(c1cc2n(n1)CCN(Cc1cccc(Cl)c1)C2=O)N1CCCCC1 | 8 µg/mL | 110 nM |  |  | > 100 µg/mL |  |  |  |  | 
12 | O=C(c1cc2n(n1)CCN(Cc1ccc(Cl)c(Cl)c1)C2=O)N1CCC(c2ccccc2)CC1 | > 32 µg/mL | > 10000 nM |  |  |  |  |  |  |  | 
13 | CC(C)(C)c1ccc(Cn2ccn3nc(C(=O)N4CCCCC4)cc3c2=O)cc1 | 2 µg/mL | 280 nM | 0% | 46% | 32 µg/mL (≈ 81.4 µM) | 31% | < 1 µg/mL | 14% | 0% | 3.7
14 | O=C(c1cc2n(n1)CCN(c1ccc(Cl)c(Cl)c1)C2=O)N1CCCCC1 | > 32 µg/mL | > 10000 nM |  |  |  |  |  |  |  | 
15 | O=C(c1cc2n(n1)CCN(CC1CCCCC1)C2=O)N1CCCCC1 | > 32 µg/mL | > 10000 nM |  |  |  |  |  |  |  | 
16 | O=C(c1cc2n(n1)C(O)CN(Cc1ccc(Cl)c(Cl)c1)C2=O)N1CCCCC1 (stereo not drawn) | 32 µg/mL | 1050 nM | 1% | 24% | > 100 µg/mL | 31% | < 1 µg/mL | 21% | 0% | 3.1
17 | CN1CCn2nc(C(=O)N3CCCCC3)cc2C1=O | > 32 µg/mL | > 10000 nM |  |  |  |  |  |  |  | 
18 | O=C(c1cc2n(n1)CCN(Cc1ccc(Cl)cc1)C2=O)N1CCCCC1 | 8 µg/mL | 1050 nM |  |  | > 100 µg/mL |  |  |  |  | 
19 | COc1nc2ccc(Br)cc2cc1C(c1ccccc1)C(O)(CCN(C)C)c1cccc2ccccc12 (racemic) | 0.25 µg/mL | 20 nM |  |  |  |  |  |  |  | 
20 | CC(=O)N1CCN(C(=O)c2cc3n(n2)CCN(Cc2ccc(Cl)c(Cl)c2)C3=O)CC1 | > 32 µg/mL | > 10000 nM |  |  |  |  |  |  |  | 
21 | Cc1cccc(CN2CCn3nc(C(=O)N4CCCCC4)cc3C2=O)c1 | 16 µg/mL | 42 nM |  |  | > 100 µg/mL |  |  |  |  | 
22 | CC(C)(C)c1ccc(Cn2ccn3cc(C(=O)N4CCCCC4)nc3c2=O)cc1 | > 32 µg/mL | 4700 nM | 0% | 2% | > 100 µg/mL | 0% | 2.7 µg/mL (≈ 6.88 µM) | 6% | 0% | 4.1
23 | Cc1ccc(CN2CCn3nc(C(=O)N4CCCCC4)cc3C2=O)cc1 | 8 µg/mL | 520 nM |  |  | > 100 µg/mL |  |  |  |  | 
24 | CC(C)(C)c1ccc(CN2CC(O)n3nc(C(=O)N4CCCCC4)cc3C2=O)cc1 (stereo not drawn) | 16 µg/mL | 3300 nM | 0% | 29% | > 100 µg/mL | 4% | 40 µg/mL (≈ 97.4 µM) | 48% | 0% | 3
25 | O=C(c1cc2n(n1)CCN(Cc1cccc(-c3ccccc3)c1)C2=O)N1CCCCC1 | 8 µg/mL | 46 nM |  |  | > 100 µg/mL |  |  |  |  | 
26 | O=C(c1cc2n(n1)CCN(Cc1ccc(Cl)c(Cl)c1)C2=O)N1CCCCC1 | 16 µg/mL | 270 nM | 13% | 11% | > 100 µg/mL | 0% | 7.2 µg/mL (≈ 17.7 µM) | 0% | 16% | 3.8
27 | CC(C)(C)OC(=O)N1CCN(C(=O)c2cc3n(n2)CCN(Cc2ccc(Cl)c(Cl)c2)C3=O)CC1 | > 32 µg/mL | > 10000 nM |  |  |  |  |  |  |  | 
28 | CN(C)CCOc1ccc(NC(=O)c2cc3n(n2)CCN(Cc2ccc(Cl)c(Cl)c2)C3=O)cc1 | > 32 µg/mL | > 10000 nM |  |  |  |  |  |  |  | 
29 | O=C(c1cc2n(n1)CCN(Cc1ccc(Cl)c(Cl)c1)C2=O)N1CCCC1 | > 32 µg/mL | > 10000 nM |  |  |  |  |  |  |  | 
30 | O=C(c1cc2n(n1)CCN(Cc1ccccc1Cl)C2=O)N1CCCCC1 | > 32 µg/mL | > 10000 nM |  |  |  |  |  |  |  | 
